In series [1] the test system is HaCaT cells. The experiment in a line: HaCaT cell viability assay for skin irritancy potential. The format is cell-based. The protocol:
Irritancy potential of the individual surfactants as well as formulation chassis (placebo formulations) were evaluated using an in house in vitro test. The method utilizes HaCaT cell viability as a marker for irritation.
Briefly, HaCaT cells were seeded in 96-well plates (Nunc 96 well plate, Cat #165305) at density of 2×10^4 cells per well, and grown overnight before treatments. Test articles were diluted in water to make 10% stock solutions, which were serially diluted in DMEM to twice to the final treatment concentrations. Cells were treated in triplicates by adding 100 μl of serially diluted test articles to each well containing 100 μl fresh medium. After incubation at 37° C., 5% CO2 for 10 minutes in the presence of diluted placebos, cells were then washed with 200 μl of DPBS with Ca^++ and Mg^++ (Life Technologies #14040133) for 3 times. CellTiter-Blue reagent (Promega, G8081, 10× stock solution) was diluted to 1× working solution in cell culture medium and added to cells (100 μl/well). Cells were incubated at 37° C., 5% CO2 for 60 minutes and the cell viability was measured using fluorescent activity (Ex. 560 nm, Em. 590 nm). All treated samples were normalized to the untreated control. Cell viabilities were then used to assess skin irritation potential.
Cell viability studies were conducted to assess the skin irritation of the formulations using Neutrogena Ultra Gentle Daily Cleanser and PanOxyl 10 (Placebo) as the comparators. The results are shown in FIG. 2 for the 2.5% BPO formulations and FIG. 3 for the 10% BPO formulations. Sodium Lauryl […] (SLS) was used as the positive control. […] All 6 formulations outperformed Neutrogena Ultra Gentle with formulation #3(2.5%) being more than 3 fold milder than Neutrogena Ultra Gentle cleanser. The 2.5% prototypes were slightly milder than the 10% formulations. This is expected due to higher concentration of the surfactants in the 10% formulations.

Series [2] is described as follows: BPO chemical stability in wash formulations and shelf life prediction. Type of series: physicochemical. Particulars: increasing sorbitol concentrations in wash formulations. The protocol:
BPO stability in the formulations of the present invention were assessed over time at 25° C./60% RH and 30° C./65% RH using environmentally controlled chambers. Specifically formulations containing 2.5% BPO or 10% BPO in glass vials were placed on stability, and monitored for BPO degradation.
Chemical stability of the BPO in surfactant based wash products is a challenge due to increased solubility of the BPO in these systems.

For series [3] the following is noted: in water and propylene glycol, after 90 days of storage; cited from earlier work.
Where [4] appears, read: HaCaT cell viability, 10 minutes treatment, left = mildest, SLS positive control.

The source of these data is patent publication US20200253914A1, “NOVEL FORMULATIONS” (priority 2015, published 2020).

Like-named read-outs stand apart in the source and are kept apart here.

In the case of “Sodium Laurylglucoside Hydroxypropylsufonate [Suganate 160 NC]”, the “rank order of screened surfactants for mildness, based on EC 50 values” (from here on “rank order of screened surfactants”) in series [1] is given as “> Plantaren 2000 N UP”. On to “Sodium Hydroxyethylglycinate cocoglucoside crosspolymer and sodium bis-hydroxytethylglycinate lauryl glucoside crosspolymer [PolySuga Glycinate C]”, for which the “rank order of screened surfactants” value in series [1] is on record as “> PolySuga Phos 1200P”.

On to “sodium C14-16 Olefin sulfonate [Colonial AOS]”, for which the “rank order of screened surfactants” value in series [1] (setting [4]) was “> Cola Lipid C”. The same measure, in the same setting: under `CCCCCCCCCCO[C@@H]1O[C@H](CO)[C@@H](O)[C@H](O)[C@H]1O` [Plantaren 2000 N UP, decyl glucoside] stands “> Colonial AOS”.

Turning to `OC[C@@H](O)[C@@H](O)[C@H](O)[C@@H](O)CO` [sorbitol, D-Sorbitol], the “effect of humectant on BPO stability (benzoic acid generated)” value in series [2] is “improve BPO stability”. With `O=C(OOC(=O)c1ccccc1)c1ccccc1` [BPO, Benzoyl peroxide], the “degradation of benzoyl peroxide in suspension (dispersed form)” value in series [3] is reported as “not degraded”. Consider “Cocamidopropyl PG-Dimonium Chloride Phosphate [Cola Lipid C]”, for which, in series [1] (setting [4]), the “rank order of screened surfactants” value is “> SLS”. The same measure, in the same setting: under “Sodium C14-C17 sec-alkyl sulfonate [Hostapur SAS 60]” stands “SLS”.
